The values below come from article PMC6058497 (Drug Delivery, 2018).

In brackets after ≈: the same amount, converted by molar mass. Like-named read-outs stand apart in the source and are kept apart here.

For data set [1] the following is noted: cited from earlier work.
Data set [2] in a line: Molecular weight distribution by gel permeation chromatography. Format: physicochemical. To be noted: dissolved in water. The protocol: The molecular weight distribution (MWD) of the samples was investigated by gel permeation chromatography (GPC) on the Agilent 1200 chromatograph with column PL aquel-OH 40 (Santa Clara, CA), 300 × 7.5 mm column at 30 °C with refractometric detector. The solvent used was 0.02% NaN3 aqueous solution and flow rate was 1 mL/min. The calibration was performed by standard dextrans with molecular weights of 1, 5, 12, 25, 80, 150, 270, and 410 kDa. Agilent GPC data analysis program was used to process the results (Santa Clara, CA).

Data set [3] relates to MCF-7 cells. As to the kind of experiment: MTT cytotoxicity test, MCF-7. The note with it: for Viability: 48 h. Format: cell-based, human. How it is done:
(§1) Cancer cell lines U-87 MG (glioblastoma) and MCF-7 (breast cancer) were obtained from the ATCC (ATCC number HTB-14 and HTB-22, respectively). Immortalized human fibroblasts used as normal cells were kindly provided by Alexander G. Shilov (Institute of Cytology and Genetics SB RAS). The cells were maintained in DMEM plus 10% FBS, under a temperature of 37 °C, atmosphere of 5% of CO2 and 90% humidity.
(§2) MTT test was performed according to a standard procedure (Mosmann, [1983]). Cells were seeded in a 96-well plate at a density of 5 × 10^3 cells/well and after 24 h of adherence, the cells were treated with different concentration of test compounds and incubated for 48 h at 37 °C in an atmosphere of 5% CO2 in air. Untreated cells were used as negative control and doxorubicin was used as a positive control. After the incubation period, 10 μL MTT solution (3 mg/mL of PBS) was added to each well followed by incubation for 3 h under the condition mentioned above. Then, the MTT-containing medium was removed and the formazan crystals were dissolved with 100 μL of isopropanol. Absorbance was measured at 630 and 492 nm using a microplate reader (Thermo Scientific, Waltham, MA). The cell viability percentage was calculated using the following formula: Viability (%)=OD (treated cells)/OD (untreated cells) × 100, where OD was an optical density of solution.
On the technique in general: Tetrazolium assays rely on reduction of a dye to a coloured formazan, in cell work by metabolically active cells.

Data set [4] concerns U-87 MG cells. In words: MTT cytotoxicity test, U-87 MG. Format: cell-based, human. The protocol:
as §1, §2

Data set [5] deals with immortalized human fibroblasts. In words: MTT cytotoxicity test, immortalized human fibroblasts. In kind it is cell-based. The note with it: for Viability: 48 h. The protocol:
as §1, §2

Data set [6] can be described thus: Solubility determination in distilled water (HPLC). In kind it is physicochemical. The note with it: +37 °C. How it is done: The amount of Cur was determined by using a high performance liquid chromatography (HPLC) system (Agilent 1200, Santa Clara, CA) with column Zorbax Eclipse XDB-C18, 4.6 × 50 mm at +30 °C and diode-array detector. Acetonitrile–acetate buffer (55:45) was used as eluent (pH = 3.4) with flow rate of 1.0 mL/min, and detection wavelength was 430 nm. […] At last, sample solutions were filtered and analyzed by HPLC.

Data set [7] in a line: Oral pharmacokinetic (bioavailability) study in rats. To be noted: male, Sprague Dawley; rat plasma, single oral dose 150 mg/kg Cur. Format: in vivo. How it is done:
The pharmacokinetic study was carried out in male Sprague Dawley rats (10 weeks of age, 250–260 g body weight, provided by the Zhejiang Academy of Medical Science, Hangzhou, China). All animal (used in this experiment) handling procedures were performed in strict compliance with the PR China legislation for the use and care of laboratory animals and were approved by the University Committee for Animal Experiments. The animals were fasted overnight (12 h) and had free access to drinking water throughout the experimental period. […] To evaluate the concentration of Cur in plasma, blood was collected into heparinized Eppendroff tubes at different time points: 0.083, 0.25, 0.5, 1, 2, 4, 6, 8, 12, and 24 h post-dosing and centrifuged (Sigma Laboratory Centrifuge, Model 3K-30, Osterode am Harz, Germany) at 9391 × g for 5 min to separate the plasma. The plasma samples were stored at –80 °C until further analysis.
A 100 μL aliquot of plasma was transferred to a clean microcentrifuge tube and next treated with 100 μL of a solution containing 1000 U of β-glucuronidase in 0.1 M phosphate buffer (pH 6.8). The resulting mixture was then thoroughly vortexed and incubated at 37 °C for 1 h to hydrolyze the conjugated Cur. After incubation, 0.1 mL acetonitrile was added to 0.1 mL of plasma and centrifuged (Sigma Laboratory Centrifuge, Model3K-30, Osterode am Harz, Germany) at 9391 × g for 15 min, and then the supernatant was subjected to be analyzed by HPLC.
Standard pharmacokinetic parameters for free Cur and Cur SDs were calculated by linear trapezoidal method using the PKSolver, a freely available menu-driven add-in program for Microsoft Excel. The results were presented as mean ± standard error of the mean (SEM). One-way analysis of variance (ANOVA) was followed by Dunnett’s test for multiple comparisons statistical evaluation. p Values <.05 were considered significant.

On the set-up of data set [8]: method as in Priyadarsini, 2014. To be noted: acidic and neutral pH; ref Priyadarsini, 2014; cited from earlier work.

As to `CC1(C)[C@@H](O[C@H]2O[C@H](C(=O)O)[C@@H](O)[C@H](O)[C@H]2O[C@@H]2O[C@H](C(=O)O)[C@@H](O)[C@H](O)[C@H]2O)CC[C@]2(C)[C@H]3C(=O)C=C4[C@@H]5C[C@@](C)(C(=O)O)CC[C@]5(C)CC[C@@]4(C)[C@]3(C)CC[C@@H]12` [GA, Glycyrrhizic acid], the “Molecular weight of micelles formed in water” value in data set [1] (dissolved in water, ref Dushkin & Tolstikova, 2012) is on record as 66 kDa. Moreover, the Critical micelle concentration in data set [1] (ref Kornievskaya et al., 2007, Polyakov, 2011) was approximately 1 mM.
For the molecule `CC1(C)[C@@H](O[C@H]2O[C@H](C(=O)[O-])[C@@H](O)[C@H](O)[C@H]2O[C@@H]2O[C@H](C(=O)O)[C@@H](O)[C@H](O)[C@H]2O)CC[C@]2(C)[C@H]3C(=O)C=C4[C@@H]5C[C@@](C)(C(=O)[O-])CC[C@]5(C)CC[C@@]4(C)[C@]3(C)CC[C@@H]12.[Na+].[Na+]` [Na2GA, disodium glycyrrhizin], the “Molecular weight of micelles formed in water” value in data set [2] is recorded as 85–90 kDa. Besides, the Viability is given as 98.2 ± 2.13% in data set [3] (MCF-7, 25 μM); 97.8 ± 3.33% in data set [3] (MCF-7, 50 μM); 98.2 ± 0.41% in data set [3] (MCF-7, 100 μM); 98.7 ± 1.59% in data set [3] (MCF-7, 200 μM); 99.6 ± 1.34% in data set [3] (MCF-7, 400 μM); 96.6 ± 2.39% in data set [4] (25 μM, 48 h). The Viability was determined as 95.9 ± 1.16% in data set [4] (50 μM, 48 h); 92.2 ± 2.75% in data set [4] (100 μM, 48 h); 92.2 ± 2.63% in data set [4] (200 μM, 48 h); 92.9 ± 1.65% in data set [4] (400 μM, 48 h); 96.2 ± 2.78% in data set [5] (25 μM); 97.3 ± 1.73% in data set [5] (50 μM). For the same molecule, the Viability in data set [5] (100 μM) amounted to 98.8 ± 4.18%; in data set [5] (200 μM), 96.0 ± 1.66%; in data set [5] (400 μM) it was 98.3 ± 0.90%. Besides, the Cytotoxicity result in data set [3] (MCF-7, 25–400 μM) is on record as “no cytotoxicity”; in data set [4] (25–400 μM) it was “no cytotoxicity”; in data set [5] (25–400 μM), “no cytotoxicity”.
In data set [6], `COc1cc(/C=C/C(=O)CC(=O)/C=C/c2ccc(O)c(OC)c2)ccc1O` [Free Cur, Curcumin] showed a solubility at 12 h of 1.73 µg/mL (≈ 4.7 µM). For the same molecule, the Mean cell survival result in data set [4] (Cur concentration range 25–100 μM, 48 h) is on record as “above 80%”. In data set [7], the AUC(0-inf) stood at 14300 ± 720 ng·h/mL, the AUC(0-t) is 12100 ± 360 ng·h/mL, the Cmax worked out at 1480 ± 30 ng/mL and the Tmax was 0.25 h. Moreover, in data set [7], the half-life was 5.07 ± 0.41 h. Moreover, the Solubility in water result in data set [8] was “practically insoluble”.

The term solubility denotes the concentration that dissolves in the medium under given conditions. Read a low solubility as a poorly soluble substance. A word on the AUC(0-inf): it is total exposure, with the tail of the curve extrapolated. Low values mean less exposure, high ones more exposure. The term AUC(0-t) denotes exposure summed from dosing to a finite time, without extrapolation to infinity. High values mean more exposure, low ones less exposure. What is called Cmax is the highest concentration seen after dosing. A word on the Tmax: it is the time at which the peak concentration occurs. Broadly, the half-life is the time needed for the level to fall by half in the phase considered. A high value points to slow decline.
